Among the test systems are EKVX NSCLC; OVCAR-3 ovarian; BT-549 breast; SK-MEL-28 melanoma; COLO 205 colon; SF-295 CNS; HS 578T breast.
Holding throughout (assay): growth of human tumour cells (NCI), 48 h

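Step 1: Grow cells in 96-well plates. Step 2: Expose to compound for 48 hours at 5 concentrations. Step 3: Interpolate endpoints linearly; if unreached, use highest concentration. TGI denotes the concentration required for complete inhibition of growth.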

With `CCO/C=N\c1c(C#N)c(-c2ccc(Cl)cc2)cn1-c1ccc(C)cc1`, the TGI in the experiment on EKVX NSCLC, in the experiment on OVCAR-3 ovarian, in the experiment on BT-549 breast, with SK-MEL-28 melanoma, in the experiment on COLO 205 colon and with SF-295 CNS was more than 100 µM in each case. For the same compound, in the experiment on HS 578T breast, the TGI is more than 100 µM.

Consider `Cc1cccc2c1C(=O)[C@](C)([C@]1(C)Nc3cccc(C)c3C1=O)N2`, for which the TGI with EKVX NSCLC was 71.7 µM; in the experiment on OVCAR-3 ovarian, 83.3 µM; in the experiment on BT-549 breast, 62.5 µM; with SK-MEL-28 melanoma, more than 100 µM; with COLO 205 colon, 44.6 µM; with SF-295 CNS, 68.9 µM. This compound also displayed a TGI in the experiment on HS 578T breast of 67.8 µM.

`CC(O)c1cc2c(s1)C(=O)c1ccsc1C2=O` (configuration not stated): the TGI in the experiment with EKVX NSCLC was found to be 0.551 µM; with OVCAR-3 ovarian, 0.169 µM; with BT-549 breast it was 0.23 µM; in the experiment on SK-MEL-28 melanoma it was 0.0328 µM; in the experiment with COLO 205 colon, 3.23 µM; with SF-295 CNS it was 0.18 µM. The compound also had a TGI in the experiment on HS 578T breast of 0.566 µM.

Consider `COc1cc(C2SCC(=O)N2c2ccc(-n3c(-c4ccccc4)nc4ccccc4c3=O)cc2)cc(OC)c1OC` (configuration not stated), for which the TGI in the experiment on EKVX NSCLC, in the experiment with OVCAR-3 ovarian, with BT-549 breast, in the experiment on SK-MEL-28 melanoma, in the experiment on COLO 205 colon and in the experiment with SF-295 CNS was more than 100 µM throughout. Further, the TGI in the experiment on HS 578T breast is more than 100 µM.

`CN=c1c2c(c3[nH]c4ccccc4c4cnc1c34)NCCC2=O`: the TGI in the experiment on EKVX NSCLC, in the experiment on OVCAR-3 ovarian, with BT-549 breast, in the experiment on SK-MEL-28 melanoma, in the experiment on COLO 205 colon and in the experiment with SF-295 CNS was more than 10 µM in each case. In the experiment with HS 578T breast, the TGI was more than 10 µM.

Take `COc1ccc(P2(=S)Oc3ccccc3-c3ccccc3O2)cc1`: the TGI in the experiment on EKVX NSCLC is more than 100 µM; with OVCAR-3 ovarian, 0.493 µM; with BT-549 breast it was more than 100 µM; in the experiment on SK-MEL-28 melanoma, more than 100 µM; in the experiment on COLO 205 colon, 2.77 µM; in the experiment with SF-295 CNS, more than 100 µM. This compound yielded a TGI with HS 578T breast of more than 100 µM.

As to `CC1(C)CC2=C(Sc3ccccc3N2)C(=O)C1C(=O)C(=O)Nc1cccc([N+](=O)[O-])c1` (configuration not stated), the TGI in the experiment on EKVX NSCLC, with OVCAR-3 ovarian, in the experiment on BT-549 breast, in the experiment on SK-MEL-28 melanoma, with COLO 205 colon and in the experiment on SF-295 CNS was more than 100 µM each time. In the experiment on HS 578T breast, the TGI was more than 100 µM.

As for `c1ccc(N=C(Nc2ccccc2)N2CCCC2)cc1`, the TGI with EKVX NSCLC, in the experiment on OVCAR-3 ovarian, in the experiment on BT-549 breast, in the experiment on SK-MEL-28 melanoma, in the experiment with COLO 205 colon and in the experiment on SF-295 CNS was more than 100 µM each time. Besides, in the experiment on HS 578T breast, the TGI was more than 100 µM.

With `NC(=O)c1cc2ccc(O)cc2o/c1=N/NC(=O)c1ccccc1`, the TGI with EKVX NSCLC, in the experiment on OVCAR-3 ovarian, with BT-549 breast, in the experiment on SK-MEL-28 melanoma, in the experiment with COLO 205 colon and in the experiment on SF-295 CNS was more than 100 µM each time. Also, the TGI in the experiment on HS 578T breast was more than 100 µM.

For the compound `CC[C@@H]1C(=O)OC[C@@H]1Cc1cncn1C`, the TGI with EKVX NSCLC, in the experiment with OVCAR-3 ovarian, in the experiment on BT-549 breast, with SK-MEL-28 melanoma, in the experiment on COLO 205 colon and in the experiment on SF-295 CNS was more than 100 µM in each case. The same compound came in with a TGI in the experiment on HS 578T breast of more than 100 µM.

`Nc1nc(N)c2cc(-c3ccccc3)cnc2n1`: the TGI in the experiment with EKVX NSCLC was 45.1 µM; in the experiment with OVCAR-3 ovarian it was 35.8 µM; in the experiment on BT-549 breast, 30.2 µM; in the experiment with SK-MEL-28 melanoma, 35 µM; with COLO 205 colon, 27.3 µM; with SF-295 CNS it was 33 µM. In the experiment on HS 578T breast, this compound had a TGI of 46.2 µM.

In the case of `CC1=CC[C@H](C(C)C)C(C(O)[C@@H](C)O[Si](c2ccccc2)(c2ccccc2)C(C)(C)C)C1=O` (some centres not stated), the TGI in the experiment with EKVX NSCLC was 28.9 µM; in the experiment with OVCAR-3 ovarian it was 35.5 µM; with BT-549 breast, 37.5 µM; with SK-MEL-28 melanoma it was more than 100 µM; with COLO 205 colon it was 47.6 µM; in the experiment with SF-295 CNS it was 33.1 µM. This compound returned a TGI in the experiment on HS 578T breast of 67 µM.

In the case of `Clc1ccc(OCc2nnc(CCCCCCCCc3nnc(COc4ccc(Cl)cc4Cl)n3Nc3ccccc3)n2Nc2ccccc2)c(Cl)c1`, the TGI in the experiment on EKVX NSCLC was more than 68.3 µM; with OVCAR-3 ovarian, 25.4 µM; with BT-549 breast it was 49.7 µM; in the experiment with SK-MEL-28 melanoma it was 19 µM; with COLO 205 colon, 3.38 µM; in the experiment with SF-295 CNS, 17.3 µM. For the same compound, the TGI in the experiment on HS 578T breast was 31.4 µM.

Take `CC(C)(C)OCC1NC(=O)[C@@H]2Cc3c([nH]c4ccccc34)C(c3ccccc3)N2C1=O` (some centres not stated): the TGI in the experiment with EKVX NSCLC, with OVCAR-3 ovarian, with BT-549 breast, in the experiment with SK-MEL-28 melanoma, in the experiment with COLO 205 colon and in the experiment with SF-295 CNS was more than 50 µM each time. The same compound showed a TGI with HS 578T breast of more than 50 µM.

Take `CC1(C)CCc2c(c(N=Nc3ccc(S(N)(=O)=O)cc3)c3ccccc3c2O)O1`: the TGI stood at 57.1 µM with EKVX NSCLC; 32.1 µM in the experiment with OVCAR-3 ovarian; 29.1 µM in the experiment with BT-549 breast; 72.9 µM in the experiment with SK-MEL-28 melanoma; 44.9 µM in the experiment with COLO 205 colon; 24 µM with SF-295 CNS. Moreover, the TGI with HS 578T breast is more than 100 µM.

`COC(=O)c1ccccc1C1CN=NC12Cc1ccccc1C2=O` (configuration not stated): the TGI in the experiment with EKVX NSCLC, in the experiment on OVCAR-3 ovarian, in the experiment on BT-549 breast, with SK-MEL-28 melanoma, in the experiment on COLO 205 colon and with SF-295 CNS was more than 100 µM throughout. In the experiment with HS 578T breast, this compound gave a TGI of more than 100 µM.

For the compound `O=c1c2cc(-c3ccccc3)sc2nc2n1N=C(c1ccc(Cl)cc1)CS2`, the TGI in the experiment on EKVX NSCLC, in the experiment with OVCAR-3 ovarian, in the experiment with BT-549 breast, in the experiment with SK-MEL-28 melanoma, with COLO 205 colon and in the experiment with SF-295 CNS was more than 100 µM each time. For the same compound, the TGI in the experiment with HS 578T breast is more than 100 µM.

As for `O=C(N/N=C/c1c(-c2ccccc2)no[n+]1[O-])N1CCOCC1`, the TGI with EKVX NSCLC, in the experiment on OVCAR-3 ovarian, with BT-549 breast, with SK-MEL-28 melanoma, in the experiment with COLO 205 colon and in the experiment with SF-295 CNS was more than 100 µM in each case. For the same compound, in the experiment with HS 578T breast, the TGI was more than 100 µM.

With `COc1ccc(S(=O)(=O)NC(CCC(=O)NN)C(=O)NN)cc1` (configuration not stated), the TGI in the experiment with EKVX NSCLC, in the experiment on OVCAR-3 ovarian, in the experiment on BT-549 breast, in the experiment with SK-MEL-28 melanoma, in the experiment on COLO 205 colon and with SF-295 CNS was more than 100 µM each time. The compound further came in with a TGI in the experiment on HS 578T breast of more than 100 µM.

As for `CCN(CC)CCC(=O)c1ccc(C)cc1`, the TGI was 86.8 µM with EKVX NSCLC; 33.1 µM with OVCAR-3 ovarian; 37.6 µM in the experiment with BT-549 breast; 29.9 µM in the experiment on SK-MEL-28 melanoma; 63.1 µM in the experiment on COLO 205 colon; more than 100 µM in the experiment with SF-295 CNS. For the same compound, in the experiment with HS 578T breast, the TGI was more than 100 µM.

For the compound `COc1cc(/C=C2\N=C(c3ccccc3)N(c3nc4cc(C)c(C)cc4s3)C2=O)ccc1O`, the TGI is more than 100 µM with EKVX NSCLC; 65.3 µM in the experiment with OVCAR-3 ovarian; more than 100 µM in the experiment with BT-549 breast; more than 100 µM with SK-MEL-28 melanoma; more than 100 µM with COLO 205 colon; more than 100 µM in the experiment on SF-295 CNS. This compound gave a TGI in the experiment with HS 578T breast of more than 100 µM.

For `O=C1/C(=C/c2ccc(OC(=O)c3ccccc3)cc2)CCC/C1=C\c1ccc(OC(=O)c2ccccc2)cc1`, the TGI in the experiment on EKVX NSCLC, in the experiment on OVCAR-3 ovarian, in the experiment with BT-549 breast, in the experiment on SK-MEL-28 melanoma, with COLO 205 colon and in the experiment with SF-295 CNS was more than 100 µM each time. This compound also gave a TGI in the experiment with HS 578T breast of more than 100 µM.

For `C=C1C(=O)O[C@@H]2[C@@H]3O[C@@H](C[C@@H]13)[C@](C)(O)CC/C=C(\C)CCC[C@@H]2C`, the TGI in the experiment on EKVX NSCLC was found to be 32 µM; in the experiment with OVCAR-3 ovarian, 25.8 µM; in the experiment with BT-549 breast it was 27.5 µM; with SK-MEL-28 melanoma it was 33.3 µM; in the experiment on COLO 205 colon, 31.5 µM; in the experiment on SF-295 CNS, 44.7 µM. Besides, in the experiment with HS 578T breast, the TGI was 37.8 µM.

With `CN(C)CCCNc1ccc2c(=O)n(CCN(C)C)c(=O)n3c4ccccc4c(=O)c1c23`, the TGI in the experiment with EKVX NSCLC worked out at 3.02 µM; in the experiment on OVCAR-3 ovarian, 3.35 µM; in the experiment with BT-549 breast, 0.369 µM; in the experiment on SK-MEL-28 melanoma, 2.57 µM; in the experiment on COLO 205 colon, 1.22 µM; in the experiment on SF-295 CNS, 1.69 µM. Moreover, the TGI in the experiment on HS 578T breast was found to be 15.7 µM.

Regarding `COc1cc2nc(-c3cccs3)nc(N3CCN(c4ccccc4C(F)(F)F)CC3)c2cc1OC`, the TGI with EKVX NSCLC, with OVCAR-3 ovarian, in the experiment on BT-549 breast, with SK-MEL-28 melanoma, with COLO 205 colon and in the experiment with SF-295 CNS was more than 100 µM each time. This compound also came in with a TGI in the experiment on HS 578T breast of more than 100 µM.

In the case of `c1ccc(C2=NCCN2)c(C2=NCCN2)c1`, the TGI in the experiment on EKVX NSCLC, in the experiment with OVCAR-3 ovarian, in the experiment on BT-549 breast, in the experiment with SK-MEL-28 melanoma, in the experiment with COLO 205 colon and in the experiment with SF-295 CNS was more than 100 µM in each case. This compound showed a TGI in the experiment with HS 578T breast of more than 100 µM.

For the origin of these results see PubChem BioAssay (NCI).
